Data: patent US9499535B2, “Kinase inhibitors” (ORIGENIS GMBH, priority 2011, dated 2016)

How the values were obtained:
MYLK = MYLK (Homo sapiens, UniProt Q15746); assay: MYLK assay (LanthaScreen Eu Kinase Binding Assay); conditions: 5 nM MYLK, 30 nM tracer 236, RT 1 h; read-out: MYLK Activites: IC50
Procedure: In the assay LanthaScreen™ Eu Kinase Binding Assay by Invitrogen Corporation (Carlsbad) the effect of invention of a compound on the phosphorylation is determined by measurement of fluorescence intensity emission ratio based on the binding and displacement of a proprietary, Alexa Fluor® 647-labeled, ATP-competitive kinase inhibitor scaffold (kinase tracer) to the kinase of interest as described above.
To the wells of an 384 well small volume plate (Greiner, Frickenhausen) are added (i) the compound under test in 5% DMSO/distilled water (5 μl), (ii) 5 μl of the kinase antibody mixture resulting in a final concentration 5 nM MYLK, 2 nM EU-Anti-GST antibody in 1× kinase buffer A. The reaction was started with addition of (iii) 5 μl resulting in a final concentration of 30 nM tracer 236. The assay plate was incubated at RT for 1 h and fluorescence intensitiy readings were collected using a TECAN M1000 at two wavelengthes of λex 340/λem 615 nm and λex 340/λem 665 nm with a delay time of 100 μs and an integration time of 200 μs after 60 minutes. The emission ratio was calculated by division of the acceptor/tracer emission ([…]) by the antibody/donor emission ([…]). The inhibitor concentration was plotted versus the emission ratio to determine the IC50 using XLFit 5.0 (IDBS, Guildford) to fit to a sigmoidal dose response curve with a variable slope.

LRRK2 = LRRK2 (Homo sapiens, UniProt Q5S007); assay: LRRK2 assay (LanthaScreen Eu Kinase Binding Assay); conditions: 5 nM LRRK2, 10 nM tracer 236, RT 1 h; read-out: LRRK2 Activites: IC50
Summary of the method: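 Kinase binding was detected by europium anti-tag antibody FRET with a competing tracer, so inhibitor binding lowers the FRET signal. IC50 came from a variable-slope sigmoidal fit of emission ratio against inhibitor concentration.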

SYK kinase = target: T1, SYK kinase (Homo sapiens, UniProt P43405); assay: SYK assay (OMNIA Kinase Assay, Invitrogen); type: biochemical; conditions: apparent Ki calculated from the IC50 using the Cheng-Prusoff equation; 1 mM ATP, 10 μM Peptide Substrate; read-out: SYK Activities: Ki
T1 construct: purchased Invitrogen, Carlsbad
Summary of the method: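 Continuous SOX-fluorescence (Omnia) readout of Tyr 7 peptide (10 μM) phosphorylation with 1 mM ATP and 0.2 mM DTT at 30° C, started by SYK addition. Fluorescence (λex 360/λem 485 nm) was read every 30 s for 30 min. IC50 from velocity vs concentration; apparent Ki via Cheng-Prusoff.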

MYLK, sequence (Q15746 whole entry): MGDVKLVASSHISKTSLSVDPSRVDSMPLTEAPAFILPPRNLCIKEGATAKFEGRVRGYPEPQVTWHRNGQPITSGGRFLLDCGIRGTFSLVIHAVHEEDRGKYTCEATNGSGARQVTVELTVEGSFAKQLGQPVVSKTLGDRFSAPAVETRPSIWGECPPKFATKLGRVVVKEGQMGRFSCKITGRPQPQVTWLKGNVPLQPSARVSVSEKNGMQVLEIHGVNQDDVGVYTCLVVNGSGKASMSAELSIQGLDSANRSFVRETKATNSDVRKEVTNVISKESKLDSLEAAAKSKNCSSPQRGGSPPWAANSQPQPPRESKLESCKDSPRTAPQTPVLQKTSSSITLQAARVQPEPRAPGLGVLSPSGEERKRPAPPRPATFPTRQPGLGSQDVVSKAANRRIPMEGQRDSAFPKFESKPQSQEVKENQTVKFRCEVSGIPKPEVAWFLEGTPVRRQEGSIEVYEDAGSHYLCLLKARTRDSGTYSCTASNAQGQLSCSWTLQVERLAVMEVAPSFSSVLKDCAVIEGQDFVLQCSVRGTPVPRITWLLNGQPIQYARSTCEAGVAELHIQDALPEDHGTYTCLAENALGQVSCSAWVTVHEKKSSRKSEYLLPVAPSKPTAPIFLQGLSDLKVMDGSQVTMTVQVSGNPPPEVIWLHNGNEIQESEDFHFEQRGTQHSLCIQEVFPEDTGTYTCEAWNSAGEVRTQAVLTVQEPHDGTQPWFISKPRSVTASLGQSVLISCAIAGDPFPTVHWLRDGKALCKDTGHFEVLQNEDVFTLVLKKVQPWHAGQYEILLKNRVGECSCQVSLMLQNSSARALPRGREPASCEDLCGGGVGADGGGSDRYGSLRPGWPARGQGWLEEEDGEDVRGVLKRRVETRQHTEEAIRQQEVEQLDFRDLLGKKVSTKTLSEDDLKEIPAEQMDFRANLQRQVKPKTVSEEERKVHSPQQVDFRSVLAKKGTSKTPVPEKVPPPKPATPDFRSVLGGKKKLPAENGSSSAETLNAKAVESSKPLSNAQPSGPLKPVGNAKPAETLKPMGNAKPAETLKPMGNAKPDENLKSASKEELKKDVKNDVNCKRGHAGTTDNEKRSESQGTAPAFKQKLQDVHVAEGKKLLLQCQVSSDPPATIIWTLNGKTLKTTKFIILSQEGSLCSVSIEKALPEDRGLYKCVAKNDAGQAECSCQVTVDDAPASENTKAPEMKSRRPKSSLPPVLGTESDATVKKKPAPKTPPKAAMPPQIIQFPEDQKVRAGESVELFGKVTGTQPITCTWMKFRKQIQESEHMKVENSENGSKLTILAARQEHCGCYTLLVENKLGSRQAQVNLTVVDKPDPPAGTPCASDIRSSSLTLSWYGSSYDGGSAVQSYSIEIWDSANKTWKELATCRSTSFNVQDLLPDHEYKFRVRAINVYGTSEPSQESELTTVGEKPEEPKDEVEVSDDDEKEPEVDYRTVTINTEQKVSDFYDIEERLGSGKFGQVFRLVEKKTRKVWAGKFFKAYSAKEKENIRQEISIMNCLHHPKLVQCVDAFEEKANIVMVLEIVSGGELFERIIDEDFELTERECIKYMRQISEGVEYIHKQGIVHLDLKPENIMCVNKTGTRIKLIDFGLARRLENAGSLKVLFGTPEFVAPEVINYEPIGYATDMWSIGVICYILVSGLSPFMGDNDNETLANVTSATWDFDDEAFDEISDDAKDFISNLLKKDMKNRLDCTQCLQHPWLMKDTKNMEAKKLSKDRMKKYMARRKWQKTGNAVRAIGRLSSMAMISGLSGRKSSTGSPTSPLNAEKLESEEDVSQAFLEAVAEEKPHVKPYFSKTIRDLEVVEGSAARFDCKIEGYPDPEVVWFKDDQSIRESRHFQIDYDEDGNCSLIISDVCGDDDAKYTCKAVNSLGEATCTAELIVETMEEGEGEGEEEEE
LRRK2, sequence (Q5S007 970-2527 limits assumed): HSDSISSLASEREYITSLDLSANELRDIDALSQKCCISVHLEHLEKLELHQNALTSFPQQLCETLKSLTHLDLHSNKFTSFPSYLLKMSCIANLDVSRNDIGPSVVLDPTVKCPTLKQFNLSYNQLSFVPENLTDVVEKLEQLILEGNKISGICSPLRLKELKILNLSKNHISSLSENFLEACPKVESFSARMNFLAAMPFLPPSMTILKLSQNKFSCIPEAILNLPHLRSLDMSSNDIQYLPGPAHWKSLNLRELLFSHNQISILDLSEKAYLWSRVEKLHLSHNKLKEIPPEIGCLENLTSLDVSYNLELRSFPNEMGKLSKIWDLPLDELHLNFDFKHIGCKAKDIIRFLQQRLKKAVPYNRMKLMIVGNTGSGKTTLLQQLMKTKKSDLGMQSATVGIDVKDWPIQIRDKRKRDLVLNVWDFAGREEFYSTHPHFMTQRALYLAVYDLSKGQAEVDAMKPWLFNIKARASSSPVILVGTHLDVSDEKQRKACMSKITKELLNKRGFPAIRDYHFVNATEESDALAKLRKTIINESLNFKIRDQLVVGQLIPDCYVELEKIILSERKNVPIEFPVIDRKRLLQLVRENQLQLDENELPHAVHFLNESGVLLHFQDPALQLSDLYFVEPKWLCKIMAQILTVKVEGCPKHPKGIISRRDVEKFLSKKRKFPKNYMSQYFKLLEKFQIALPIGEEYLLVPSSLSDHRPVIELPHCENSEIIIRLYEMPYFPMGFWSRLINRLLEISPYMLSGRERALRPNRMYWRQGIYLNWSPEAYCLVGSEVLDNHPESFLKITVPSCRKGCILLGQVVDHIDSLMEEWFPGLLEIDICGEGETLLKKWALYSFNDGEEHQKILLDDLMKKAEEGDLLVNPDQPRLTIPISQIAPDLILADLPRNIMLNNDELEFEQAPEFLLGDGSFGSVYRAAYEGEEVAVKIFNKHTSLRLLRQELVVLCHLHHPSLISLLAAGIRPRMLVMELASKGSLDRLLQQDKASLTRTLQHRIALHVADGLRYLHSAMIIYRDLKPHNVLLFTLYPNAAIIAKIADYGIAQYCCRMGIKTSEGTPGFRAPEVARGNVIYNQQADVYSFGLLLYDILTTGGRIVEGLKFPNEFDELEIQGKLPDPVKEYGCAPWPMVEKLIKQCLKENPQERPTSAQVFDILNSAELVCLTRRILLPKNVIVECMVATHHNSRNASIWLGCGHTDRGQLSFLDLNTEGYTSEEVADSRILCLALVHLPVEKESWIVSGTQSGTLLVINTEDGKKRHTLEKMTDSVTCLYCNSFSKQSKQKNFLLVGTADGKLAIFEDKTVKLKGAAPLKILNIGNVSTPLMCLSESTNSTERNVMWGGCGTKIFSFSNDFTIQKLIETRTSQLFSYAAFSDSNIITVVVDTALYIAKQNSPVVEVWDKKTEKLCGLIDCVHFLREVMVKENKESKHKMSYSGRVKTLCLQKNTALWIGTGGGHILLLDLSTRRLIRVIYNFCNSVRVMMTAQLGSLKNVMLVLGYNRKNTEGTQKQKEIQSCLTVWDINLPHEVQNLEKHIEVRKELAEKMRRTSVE

Row | IC50 (MYLK) [µM] | IC50 (LRRK2) [µM] | Ki (SYK kinase) [µM] | SMILES
1 | < 5 | 0.1 to 1 | 0.01 to 0.1 | COc1ccc2nc(Nc3ccccc3)c3n[nH]cc3c2c1 [Example #13, (8-Methoxy-2H-pyrazolo[3,4-c]quinolin-4-yl)-phenyl-amine]
2 | < 5 | 0.1 to 1 | 0.01 to 0.1 | Brc1ccc2nc(Nc3ccc4[nH]cnc4c3)c3n[nH]cc3c2c1 [Example #34, (1H-Benzoimidazol-5-yl)-(8-bromo-2H-pyrazolo[3,4-c]quinolin-4-yl)-amine]
3 | < 5 | 0.1 to 1 | 0.01 to 0.1 | COc1ccc2nc(Nc3ccc4[nH]ncc4c3)c3n[nH]cc3c2c1 [Example #38, (1H-Indazol-5-yl)-(8-methoxy-2H-pyrazolo[3,4-c]quinolin-4-yl)-amine]
4 | < 5 | 0.1 to 1 | 0.01 to 0.1 | COc1ccc2nc(Nc3ccc4[nH]cnc4c3)c3n[nH]cc3c2c1 [Example #39, (1H-Benzoimidazol-5-yl)-(8-methoxy-2H-pyrazolo[3,4-c]quinolin-4-yl)-amine]
5 | < 5 | 0.01 to 0.1 | 0.01 to 0.1 | COc1ccc2nc(Nc3ccc(N4CCN(C)CC4)cc3)c3n[nH]cc3c2c1 [Example #42, (8-Methoxy-2H-pyrazolo[3,4-c]quinolin-4-yl)-[4-(4-methyl-piperazin-1-yl)-phenyl]-amine]
6 | < 5 | 0.1 to 1 | < 0.01 | CN1CCN(c2ccc(Nc3nc4ccc(Br)cc4c4c[nH]nc34)cc2)CC1 [Example #43, (8-Bromo-2H-pyrazolo[3,4-c]quinolin-4-yl)-[4-(4-methyl-piperazin-1-yl)-phenyl]-amine]
7 | < 5 | 0.01 to 0.1 | 0.01 to 0.1 | COc1ccc2nc(Nc3cccc(N)c3)c3n[nH]cc3c2c1 [Example #44, N-(8-Methoxy-2H-pyrazolo[3,4-c]quinolin-4-yl)-benzene-1,3-diamine]
8 | < 5 | 0.1 to 1 | 0.1 to 1 | COc1ccc2nc(Nc3cccc(C(=N)N)c3)c3n[nH]cc3c2c1 [Example #49, 3-(8-Methoxy-2H-pyrazolo[3,4-c]quinolin-4-ylamino)-benzamidine]
9 | < 5 | 0.1 to 1 | 0.1 to 1 | COc1ccc2nc(Nc3cccc(C(N)=O)c3)c3n[nH]cc3c2c1 [Example #52, 3-(8-Methoxy-2H-pyrazolo[3,4-c]quinolin-4-ylamino)-benzamide]
10 | < 5 | 0.1 to 1 | 0.01 to 0.1 | COc1ccc2nc(Nc3ccc(OC)c(OC)c3)c3n[nH]cc3c2c1 [Example #53, (3,4-Dimethoxy-phenyl)-(8-methoxy-2H-pyrazolo[3,4-c]quinolin-4-yl)-amine]
11 | < 5 | 0.1 to 1 | 0.01 to 0.1 | COc1ccc2nc(Nc3ccc4nc(C)[nH]c4c3)c3n[nH]cc3c2c1 [Example #55, (8-Methoxy-2H-pyrazolo[3,4-c]quinolin-4-yl)-(2-methyl-3H-benzoimidazol-5-yl)-amine]
12 | < 5 | 0.01 to 0.1 | < 0.01 | c1cnc2c(c1)nc(Nc1ccc3[nH]ncc3c1)c1n[nH]cc12 [Example #56, (1H-Indazol-5-yl)-(2H-2,3,5,9-tetraaza-cyclopenta[a]naphthalen-4-yl)-amine]
13 | < 5 | 0.1 to 1 | 0.01 to 0.1 | COc1ccc2nc(Nc3ccc(C(=O)O)cc3)c3n[nH]cc3c2c1 [Example #57, 4-(8-Methoxy-2H-pyrazolo[3,4-c]quinolin-4-ylamino)-benzoic-acid]
14 | < 5 | 0.1 to 1 | < 0.01 | COc1ccc2nc(Nc3cc(OC)c(OC)c(OC)c3)c3n[nH]cc3c2c1 [Example #67, (8-Methoxy-2H-pyrazolo[3,4-c]quinolin-4-yl)-(3,4,5-trimethoxy-phenyl)-amine]
15 | < 5 | 0.1 to 1 | 0.01 to 0.1 | COc1ccc2nc(Nc3ccc4[nH]c(=O)[nH]c4c3)c3n[nH]cc3c2c1 [Example #71, 5-(8-Methoxy-2H-pyrazolo[3,4-c]quinolin-4-ylamino)-1,3-dihydro-benzoimidazol-2-one]
16 | < 5 | 0.1 to 1 | 0.01 to 0.1 | COc1ccc2nc(Nc3ccc(CN)cc3)c3[nH]ncc3c2c1 [Example #73, (4-Aminomethyl-phenyl)-(8-methoxy-3H-pyrazolo[3,4-c]quinolin-4-yl)-amine]

Row | IC50 (MYLK) [µM] | IC50 (LRRK2) [µM] | Ki (SYK kinase) [µM] | SMILES
17 | < 5 | 0.1 to 1 | 0.01 to 0.1 | CN(C)c1ccc(Nc2nc3ccc(Br)cc3c3c[nH]nc23)cc1 [Example #84, N-(8-Bromo-2H-pyrazolo[3,4-c]quinolin-4-yl)-N′,N′-dimethyl-benzene-1,4-diamine]
18 | < 5 | 0.1 to 1 | 0.01 to 0.1 | COc1ccc2nc(Nc3ccc(C4=NCCN4)cc3)c3n[nH]cc3c2c1 [Example #86, [4-(4,5-Dihydro-1H-imidazol-2-yl)-phenyl]-(8-methoxy-2H-pyrazolo[3,4-c]quinolin-4-yl)-amine]
19 | < 5 | 0.01 to 0.1 | 0.1 to 1 | COc1ccc2nc(Nc3ccc(N4CCOCC4=O)cc3)c3n[nH]cc3c2c1 [Example #87, 4-[4-(8-Methoxy-2H-pyrazolo[3,4-c]quinolin-4-ylamino)-phenyl]-morpholin-3-one]
20 | < 5 | 0.1 to 1 | 0.1 to 1 | COc1ccc2nc(Nc3ccc(-c4nnn[nH]4)cc3)c3[nH]ncc3c2c1 [Example #98, (8-Methoxy-3H-pyrazolo[3,4-c]quinolin-4-yl)-[4-(1H-tetrazol-5-yl)-phenyl]-amine]
21 | < 5 | 0.1 to 1 | 0.01 to 0.1 | COc1ccc2nc(Nc3ccc(C4CCN(C)CC4)cc3)c3n[nH]cc3c2c1 [Example #102, (8-Methoxy-2H-pyrazolo[3,4-c]quinolin-4-yl)-[4-(1-methyl-piperidin-4-yl)-phenyl]-amine]
22 | < 5 | 0.1 to 1 | 0.01 to 0.1 | COc1ccc2nc(Nc3ccc(CC(N)=O)cc3)c3[nH]ncc3c2c1 [Example #112, 2-[4-(8-Methoxy-3H-pyrazolo[3,4-c]quinolin-4-ylamino)-phenyl]-acetamide]
23 | < 5 | 0.01 to 0.1 | < 0.01 | COc1ccc2nc(Nc3ccc(OC)c(O)c3)c3n[nH]cc3c2c1 [Example #118, 2-Methoxy-5-(8-methoxy-2H-pyrazolo[3,4-c]quinolin-4-ylamino)-phenol]
24 | < 5 | 0.01 to 0.1 | 0.01 to 0.1 | COc1ccc2nc(Nc3cccc(NC(C)=O)c3)c3[nH]ncc3c2c1 [Example #120, N-[3-(8-Methoxy-3H-pyrazolo[3,4-c]quinolin-4-ylamino)-phenyl]-acetamide]
25 | < 5 | 0.1 to 1 | 0.01 to 0.1 | COc1ccc2nc(Nc3cn[nH]c3)c3[nH]ncc3c2c1 [Example #121, (8-Methoxy-3H-pyrazolo[3,4-c]quinolin-4-yl)-(1H-pyrazol-4-yl)-amine]
26 | < 5 | 0.1 to 1 | 0.01 to 0.1 | COc1ccc(Nc2nc3cc(OC)c(OC)cc3c3c[nH]nc23)cc1OC [Example #122, (3,4-Dimethoxy-phenyl)-(7,8-dimethoxy-2H-pyrazolo[3,4-c]quinolin-4-yl)-amine]
27 | < 5 | 0.1 to 1 | 0.1 to 1 | COc1ccc2nc(Nc3ccc4c(c3)ncn4C)c3n[nH]cc3c2c1 [Example #126, (8-Methoxy-2H-pyrazolo[3,4-c]quinolin-4-yl)-(1-methyl-1H-benzoimidazol-5-yl)-amine]
28 | < 5 | 0.1 to 1 | 0.01 to 0.1 | COc1ccc2nc(Nc3ccc(NC(C)=O)cc3)c3n[nH]cc3c2c1 [Example #128, N-[4-(8-Methoxy-2H-pyrazolo[3,4-c]quinolin-4-ylamino)-phenyl]-acetamide]
29 | < 5 | 0.01 to 0.1 | 0.1 to 1 | COc1ccc2nc(Nc3cccc(S(N)(=O)=O)c3)c3n[nH]cc3c2c1 [Example #131, 3-(8-Methoxy-2H-pyrazolo[3,4-c]quinolin-4-ylamino)-benzenesulfonamide]
30 | < 5 | 0.01 to 0.1 | 0.01 to 0.1 | COc1ccc2nc(Nc3ccc(S(N)(=O)=O)cc3)c3n[nH]cc3c2c1 [Example #132, 4-(8-Methoxy-2H-pyrazolo[3,4-c]quinolin-4-ylamino)-benzenesulfonamide]
31 | < 5 | 0.1 to 1 | 0.01 to 0.1 | COc1cc2nc(Nc3ccc(N4CCOCC4)cc3)c3n[nH]cc3c2cc1OC [Example #133, (7,8-Dimethoxy-2H-pyrazolo[3,4-c]quinolin-4-yl)-(4-morpholin-4-yl-phenyl)-amine]
